Test results as given in the NIST ThermoML archive (doi:10.1016/j.fluid.2011.06.011).
“And” between values parts separate entries of the source, which are not always exact repeats. Identical values can stand only once. ± gives the expanded uncertainty stated by the source.

Experiments:
[1] = refractive index (Na D-line) (dimensionless); details: 101.33 kPa, Liquid, Standard Abbe refractometry
[2] = Liquid; for speed of sound: Sing-around technique in a fixed-path interferometer; for mass density: Vibrating tube method
[3] = xn = mol fraction of the nth substance listed; details: Liquid, x2 = 0; for speed of sound: Sing-around technique in a fixed-path interferometer; for mass density: Vibrating tube method
[4] = refractive index (Na D-line) (dimensionless); xn = mol fraction of the nth substance listed; details: 101 kPa, Liquid, Standard Abbe refractometry, x2 = 0

Structure (SMILES): C=CC(C)(O)CCC=C(C)C (stereo not given) [3,7-dimethyl-1,6-octadien-3-ol]
- refractive index ([1]; 283.15 K): 1.46659 ± 0.00049 and 1.4666 ± 0.00049
- refractive index ([1]; 298.15 K): 1.45946 ± 0.00049
- refractive index ([1]; 313.15 K): 1.45215 ± 0.00049
- refractive index ([1]; 328.15 K): 1.44473 ± 0.00049
- speed of sound ([2]; 283.15 K, 101 kPa): 1370.6 ± 2 m/s
- speed of sound ([2]; 283.15 K, 101.33 kPa): 1370.3 ± 2 m/s
- mass density ([2]; 283.15 K, 101.33 kPa): 869.39 ± 0.63 kg/m3
- mass density ([2]; 283.15 K, 20000 kPa): 880.8 ± 0.8 kg/m3
- mass density ([2]; 283.15 K, 25000 kPa): 883.7 ± 0.9 kg/m3
- mass density ([2]; 283.15 K, 30000 kPa): 886.1 ± 0.9 kg/m3
- mass density ([2]; 283.15 K, 35000 kPa): 888.9 ± 0.9 kg/m3
- mass density ([2]; 283.15 K, 40000 kPa): 891.4 ± 0.9 kg/m3
- speed of sound ([2]; 298.15 K, 101 kPa): 1315.1 ± 2 m/s
- speed of sound ([2]; 298.15 K, 101.33 kPa): 1313.1 ± 2 m/s
- mass density ([2]; 298.15 K, 101.33 kPa): 857 ± 0.62 kg/m3
- mass density ([2]; 298.15 K, 20000 kPa): 869.4 ± 0.8 kg/m3
- mass density ([2]; 298.15 K, 25000 kPa): 872.3 ± 0.9 kg/m3
- mass density ([2]; 298.15 K, 30000 kPa): 875.2 ± 0.9 kg/m3
- mass density ([2]; 298.15 K, 35000 kPa): 877.9 ± 0.9 kg/m3
- mass density ([2]; 298.15 K, 40000 kPa): 880.6 ± 0.9 kg/m3
- speed of sound ([2]; 313.15 K, 101.33 kPa): 1260.8 ± 2 m/s
- mass density ([2]; 313.15 K, 101.33 kPa): 844.29 ± 0.61 kg/m3
- mass density ([2]; 313.15 K, 20000 kPa): 857.6 ± 0.8 kg/m3
- mass density ([2]; 313.15 K, 25000 kPa): 860.9 ± 0.9 kg/m3
- mass density ([2]; 313.15 K, 30000 kPa): 863.9 ± 0.9 kg/m3
- mass density ([2]; 313.15 K, 35000 kPa): 866.8 ± 0.9 kg/m3
- mass density ([2]; 313.15 K, 40000 kPa): 869.7 ± 0.9 kg/m3
- speed of sound ([2]; 328.15 K, 101.33 kPa): 1207.6 ± 2 m/s
- mass density ([2]; 328.15 K, 101.33 kPa): 831.31 ± 0.6 kg/m3
- mass density ([2]; 328.15 K, 20000 kPa): 846 ± 0.8 kg/m3
- mass density ([2]; 328.15 K, 25000 kPa): 849.3 ± 0.9 kg/m3
- mass density ([2]; 328.15 K, 30000 kPa): 852.6 ± 0.9 kg/m3
- mass density ([2]; 328.15 K, 35000 kPa): 855.7 ± 0.9 kg/m3
- mass density ([2]; 328.15 K, 40000 kPa): 858.8 ± 0.9 kg/m3

Structure (SMILES): CCO [ethanol] + C=CC(C)(O)CCC=C(C)C
- speed of sound ([3]; 283.15 K, 101 kPa): 1196.2 ± 0.7 m/s
- mass density ([3]; 283.15 K, 101 kPa): 798.28 ± 0.12 kg/m3
- mass density ([3]; 283.15 K, 20000 kPa): 812.8 ± 0.6 kg/m3
- mass density ([3]; 283.15 K, 25000 kPa): 816.5 ± 0.6 kg/m3
- mass density ([3]; 283.15 K, 30000 kPa): 819.8 ± 0.6 kg/m3
- mass density ([3]; 283.15 K, 35000 kPa): 823 ± 0.6 kg/m3
- mass density ([3]; 283.15 K, 40000 kPa): 826.1 ± 0.6 kg/m3
- speed of sound ([3]; 298.15 K, 101 kPa): 1146.2 ± 0.7 m/s
- mass density ([3]; 298.15 K, 101 kPa): 785.46 ± 0.12 kg/m3
- mass density ([3]; 298.15 K, 20000 kPa): 801.5 ± 0.6 kg/m3
- mass density ([3]; 298.15 K, 25000 kPa): 805.3 ± 0.6 kg/m3
- mass density ([3]; 298.15 K, 30000 kPa): 808.8 ± 0.6 kg/m3
- mass density ([3]; 298.15 K, 35000 kPa): 812.2 ± 0.6 kg/m3
- mass density ([3]; 298.15 K, 40000 kPa): 815.5 ± 0.6 kg/m3
- speed of sound ([3]; 313.15 K, 101 kPa): 1096.7 ± 0.7 m/s
- mass density ([3]; 313.15 K, 101 kPa): 772.39 ± 0.13 kg/m3
- mass density ([3]; 313.15 K, 20000 kPa): 789.8 ± 0.6 kg/m3
- mass density ([3]; 313.15 K, 25000 kPa): 794 ± 0.6 kg/m3
- mass density ([3]; 313.15 K, 30000 kPa): 797.4 ± 0.6 kg/m3
- mass density ([3]; 313.15 K, 35000 kPa): 801 ± 0.6 kg/m3
- mass density ([3]; 313.15 K, 40000 kPa): 804.8 ± 0.6 kg/m3
- speed of sound ([3]; 328.15 K, 101 kPa): 1047 ± 0.7 m/s
- mass density ([3]; 328.15 K, 101 kPa): 758.93 ± 0.13 kg/m3
- mass density ([3]; 328.15 K, 20000 kPa): 777.8 ± 0.6 kg/m3
- mass density ([3]; 328.15 K, 25000 kPa): 782.2 ± 0.6 kg/m3
- mass density ([3]; 328.15 K, 30000 kPa): 786.3 ± 0.6 kg/m3
- mass density ([3]; 328.15 K, 35000 kPa): 790 ± 0.6 kg/m3
- mass density ([3]; 328.15 K, 40000 kPa): 793.9 ± 0.6 kg/m3
- refractive index ([4]; 283.15 K): 1.36546 ± 0.00031
- refractive index ([4]; 298.15 K): 1.35984 ± 0.00031
- refractive index ([4]; 313.15 K): 1.35409 ± 0.00031
- refractive index ([4]; 328.15 K): 1.34827 ± 0.00031

Structure (SMILES): CCO [ethanol]
- refractive index ([1]; 283.15 K): 1.36546 ± 0.00031
- refractive index ([1]; 298.15 K): 1.35984 ± 0.00031
- refractive index ([1]; 313.15 K): 1.35409 ± 0.00031
- refractive index ([1]; 328.15 K): 1.34827 ± 0.00031
- mass density ([2]; 283.15 K, 101 kPa): 798.28 ± 0.12 kg/m3
- speed of sound ([2]; 283.15 K, 101.33 kPa): 1196.2 ± 0.7 m/s
- mass density ([2]; 283.15 K, 101.33 kPa): 798.27 ± 0.13 kg/m3
- mass density ([2]; 283.15 K, 20000 kPa): 812.8 ± 0.6 kg/m3
- mass density ([2]; 283.15 K, 25000 kPa): 816.5 ± 0.6 kg/m3
- mass density ([2]; 283.15 K, 30000 kPa): 819.8 ± 0.6 kg/m3
- mass density ([2]; 283.15 K, 35000 kPa): 823 ± 0.6 kg/m3
- mass density ([2]; 283.15 K, 40000 kPa): 826.1 ± 0.6 kg/m3
- mass density ([2]; 298.15 K, 101 kPa): 785.46 ± 0.12 kg/m3
- speed of sound ([2]; 298.15 K, 101.33 kPa): 1146.2 ± 0.7 m/s
- mass density ([2]; 298.15 K, 101.33 kPa): 785.45 ± 0.14 kg/m3
- mass density ([2]; 298.15 K, 20000 kPa): 801.5 ± 0.6 kg/m3
- mass density ([2]; 298.15 K, 25000 kPa): 805.3 ± 0.6 kg/m3
- mass density ([2]; 298.15 K, 30000 kPa): 808.8 ± 0.6 kg/m3
- mass density ([2]; 298.15 K, 35000 kPa): 812.2 ± 0.6 kg/m3
- mass density ([2]; 298.15 K, 40000 kPa): 815.5 ± 0.6 kg/m3
- speed of sound ([2]; 313.15 K, 101.33 kPa): 1096.7 ± 0.7 m/s
- mass density ([2]; 313.15 K, 101.33 kPa): 772.39 ± 0.14 kg/m3
- mass density ([2]; 313.15 K, 20000 kPa): 789.8 ± 0.6 kg/m3
- mass density ([2]; 313.15 K, 25000 kPa): 794 ± 0.6 kg/m3
- mass density ([2]; 313.15 K, 30000 kPa): 797.4 ± 0.6 kg/m3
- mass density ([2]; 313.15 K, 35000 kPa): 801 ± 0.6 kg/m3
- mass density ([2]; 313.15 K, 40000 kPa): 804.8 ± 0.6 kg/m3
- speed of sound ([2]; 328.15 K, 101.33 kPa): 1047 ± 0.7 m/s
- mass density ([2]; 328.15 K, 101.33 kPa): 758.93 ± 0.15 kg/m3
- mass density ([2]; 328.15 K, 20000 kPa): 777.8 ± 0.6 kg/m3
- mass density ([2]; 328.15 K, 25000 kPa): 782.2 ± 0.6 kg/m3
- mass density ([2]; 328.15 K, 30000 kPa): 786.3 ± 0.6 kg/m3
- mass density ([2]; 328.15 K, 35000 kPa): 790 ± 0.6 kg/m3
- mass density ([2]; 328.15 K, 40000 kPa): 793.9 ± 0.6 kg/m3
